Results reported in ChEMBL document CHEMBL5661967, “Antitumor activity of HKI-272, an orally active, irreversible inhibitor of the HER-2 tyrosine kinase” (Cancer Res, 2004).
The source made the active and inactive calls. The rule behind the calls is not given here.

Experiments:
SK-OV-3 = assay: Antitumor activity against human SK-OV-3 cells xenografted in po dosed athymic nude mouse assessed as tumor growth inhibition administered daily for 20 days via gavage and measured on day 21; type: functional, organism-based; conditions: dose 10-60 mg/kg, time 21.0 day
BT-474 [1] = assay: Cell cycle arrest in human BT-474 cells assessed as accumulation of cells at G0-G1 phase at 0.2 nM measured after 12 to 16 hrs by propidium iodide staining based flow cytometry (reference value: 61%); type: functional; conditions: time 12-16 hrs
SW-620 = assay: Antiproliferative activity against human SW620 cells measured after 2 days by sulforhodamine B assay; type: functional, cell-based; conditions: SW-620, 48 h
BT-474 [2] = assay: Cell cycle arrest in human BT-474 cells assessed as up regulation of p27 expression at 1 to 10 nM incubated for 12 to 16 hrs by Western blot analysis; type: functional, cell-based; conditions: dose 1-10 nM, time 12-16 hrs
[3] = In vivo inhibition of HER2 autophosphorylation in human BT-474 cells xenografted athymic nude mouse at 40 mg/kg, po administered as single dose via gavage measured after 24 hrs by immunoblot analysis relative to control; type: functional
BT-474 [4] = assay: Cell cycle arrest in human BT-474 cells assessed as accumulation of cells at G0-G1 phase at 2 nM measured after 12 to 16 hrs by propidium iodide staining based flow cytometry (reference value: 61%); type: functional; conditions: time 12-16 hrs
[5] = molecular target: Hepatocyte growth factor receptor (Homo sapiens, UniProt P08581); assay: Inhibition of recombinant c-Met autophosphorylation (unknown origin)
[6] = Cytotoxicity against mouse 3T3 cells assessed as inhibition of cell proliferation measured after 2 days by sulforhodamine B assay; type: toxicity, cell-based; conditions: NIH3T3 (3T3) cells
[7] = molecular target: Mitogen-activated protein kinase kinase kinase 8 (Homo sapiens, UniProt P41279); assay: Inhibition of recombinant Tpl-2 (unknown origin) using peptide as substrate
BT-474 [8] = assay: Cell cycle arrest in human BT-474 cells assessed as accumulation of cells at G2/M phase at 0.4 nM measured after 12 to 16 hrs by propidium iodide staining based flow cytometry (reference value: 11%); type: functional; conditions: time 12-16 hrs
[9] = molecular target: Proto-oncogene tyrosine-protein kinase Src (Homo sapiens, UniProt P12931); assay: Inhibition of recombinant Src (unknown origin) using peptide as substrate
[10] = Toxicity in human SK-OV-3 cells xenografted athymic nude mouse at 10 to 60 mg/kg, po administered daily via gavage for 20 days; type: organism-based; conditions: in vivo, 480 h, dose 10-60 mg/kg, time 20 day
BT-474 [11] = assay: Cell cycle arrest in human BT-474 cells assessed as accumulation of cells at S phase at 0.2 nM measured after 12 to 16 hrs by propidium iodide staining based flow cytometry (reference value: 21%); type: functional; conditions: time 12-16 hrs
A-431 = assay: Antitumor activity against human A-431 cells xenografted in athymic nude mouse assessed as tumor growth inhibition at 20 mg/kg, po administered daily for 10 days via gavage and measured on day 15 relative to control; type: functional; conditions: A-431, 360 h, time 15 day, read-out: TGI
BT-474 [12] = assay: Cell cycle arrest in human BT-474 cells assessed as accumulation of cells at S phase at 0.4 nM measured after 12 to 16 hrs by BrdUrd uptake assay (reference value: 26%); type: functional; conditions: time 12-16 hrs
NIH3T3 [13] = assay: Antitumor activity against mouse 3T3 cells transfected with HER-2 oncogene implanted in athymic nude mouse assessed as tumor growth inhibition at 20 mg/kg, po administered daily for 10 days via gavage and measured on day 21 relative to control; type: functional; conditions: NIH3T3, 504 h, time 21 day, read-out: TGI
MDA-MB-361 = assay: Antiproliferative activity against human MDA-MB-361 cells measured after 2 days by sulforhodamine B assay; type: functional, cell-based; conditions: MDA-MB-361, 48 h
BT-474 [14] = assay: Cell cycle arrest in human BT-474 cells assessed as accumulation of cells at Sub-G1 phase at 1 nM measured after 12 to 16 hrs by propidium iodide staining based flow cytometry (reference value: 8%); type: functional; conditions: time 12-16 hrs
[15] = molecular target: Epidermal growth factor receptor (Homo sapiens, UniProt P00533); assay: Inhibition of EGF-induced EGFR phosphorylation in human A-431 cells at 1 uM incubated for 3 hrs by Western blot analysis relative to control; type: cell-based
BT-474 [16] = assay: Cell cycle arrest in human BT-474 cells assessed as accumulation of cells at G2/M phase at 2 nM measured after 12 to 16 hrs by propidium iodide staining based flow cytometry (reference value: 11%); type: functional; conditions: time 12-16 hrs
[17] = molecular target: Retinoblastoma-associated protein (Homo sapiens) (UniProt P06400); assay: Inhibition of Rb phosphorylation in human BT-474 cells at 1 to 10 nM incubated for 12 to 16 hrs by Western blot analysis; type: cell-based; conditions: dose 1-10 nM, time 12-16 hrs
BT-474 [18] = assay: Cell cycle arrest in human BT-474 cells assessed as accumulation of cells at S phase at 2 nM measured after 12 to 16 hrs by BrdUrd uptake assay (reference value: 26%); type: functional; conditions: time 12-16 hrs
[19] = molecular target: Receptor tyrosine-protein kinase erbB-2 (Homo sapiens, UniProt P04626); assay: Irreversible inhibition of HER2 autophosphorylation in human BT-474 cells at 1 uM incubated for 3 hrs followed by compound washout and further incubated for 5 hrs by Western blot analysis relative to control; type: cell-based
Homo sapiens [20] = species on record: Homo sapiens; assay: Selectivity ratio of IC50 for recombinant KDR (unknown origin) to IC50 for recombinant N-terminal His6-tagged HER2 cytoplasmic domain (676 to 1255 residues)(unknown origin) expressed in baculovirus infected Sf9 insect cells
BT-474 [21] = assay: Cell cycle arrest in human BT-474 cells assessed as accumulation of cells at Sub-G1 phase at 0.2 nM measured after 12 to 16 hrs by propidium iodide staining based flow cytometry (reference value: 8%); type: functional; conditions: time 12-16 hrs
Homo sapiens [22] = species on record: Homo sapiens; assay: Selectivity ratio of IC50 for recombinant Src (unknown origin) to IC50 for recombinant N-terminal His6-tagged HER2 cytoplasmic domain (676 to 1255 residues)(unknown origin) expressed in baculovirus infected Sf9 insect cells
BT-474 [23] = assay: Antiproliferative activity against human BT-474 cells measured after 6 days by sulforhodamine B assay; type: functional, cell-based; conditions: BT-474, 144 h
[24] = Toxicity in mouse 3T3 cells transfected with HER-2 oncogene implanted athymic nude mouse at 20 to 80 mg/kg, po administered daily for 10 days; type: organism-based, NIH3T3; conditions: in vivo, 240 h, dose 20-80 mg/kg, time 10 day
MDA-MB-435 = assay: Antiproliferative activity against human MDA-MB-435 cells measured after 2 days by sulforhodamine B assay; type: functional, cell-based; conditions: MDA-MB-435, 48 h
NIH3T3 [25] = assay: Antitumor activity against mouse 3T3 cells transfected with HER-2 oncogene implanted in athymic nude mouse assessed as tumor growth inhibition at 10 mg/kg, po administered daily for 10 days via gavage and measured on day 14 relative to control; type: functional; conditions: NIH3T3, 336 h, time 14 day, read-out: TGI
[26] = molecular target: RAF proto-oncogene serine/threonine-protein kinase (Homo sapiens, UniProt P04049); assay: Inhibition of recombinant c-Raf (unknown origin) using protein as substrate
BT-474 [27] = assay: Cell cycle arrest in human BT-474 cells assessed as accumulation of cells at S phase at 1 nM measured after 12 to 16 hrs by propidium iodide staining based flow cytometry (reference value: 21%); type: functional; conditions: time 12-16 hrs
NIH3T3 [28] = assay: Antiproliferative activity against mouse 3T3 cells transfected with HER-2 oncogene measured after 2 days by sulforhodamine B assay; type: functional, cell-based; conditions: NIH3T3, 48 h

Proto-oncogene tyrosine-protein kinase Src, sequence (P12931 2-536 limits assumed): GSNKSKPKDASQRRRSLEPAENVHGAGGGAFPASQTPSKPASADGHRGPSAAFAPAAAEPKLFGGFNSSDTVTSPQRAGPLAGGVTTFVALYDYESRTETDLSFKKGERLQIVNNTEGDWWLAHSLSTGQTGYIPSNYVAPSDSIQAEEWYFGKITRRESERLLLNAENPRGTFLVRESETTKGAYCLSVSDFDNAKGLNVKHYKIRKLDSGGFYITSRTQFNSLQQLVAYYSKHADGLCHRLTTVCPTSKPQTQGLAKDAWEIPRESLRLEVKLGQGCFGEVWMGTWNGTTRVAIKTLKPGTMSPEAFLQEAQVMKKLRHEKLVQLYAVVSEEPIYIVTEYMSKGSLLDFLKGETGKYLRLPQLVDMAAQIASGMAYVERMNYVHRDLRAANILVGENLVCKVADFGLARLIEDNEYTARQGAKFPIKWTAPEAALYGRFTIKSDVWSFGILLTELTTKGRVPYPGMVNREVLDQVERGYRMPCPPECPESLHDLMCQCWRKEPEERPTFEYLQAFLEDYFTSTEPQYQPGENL
RAF proto-oncogene serine/threonine-protein kinase, sequence (P04049 whole entry): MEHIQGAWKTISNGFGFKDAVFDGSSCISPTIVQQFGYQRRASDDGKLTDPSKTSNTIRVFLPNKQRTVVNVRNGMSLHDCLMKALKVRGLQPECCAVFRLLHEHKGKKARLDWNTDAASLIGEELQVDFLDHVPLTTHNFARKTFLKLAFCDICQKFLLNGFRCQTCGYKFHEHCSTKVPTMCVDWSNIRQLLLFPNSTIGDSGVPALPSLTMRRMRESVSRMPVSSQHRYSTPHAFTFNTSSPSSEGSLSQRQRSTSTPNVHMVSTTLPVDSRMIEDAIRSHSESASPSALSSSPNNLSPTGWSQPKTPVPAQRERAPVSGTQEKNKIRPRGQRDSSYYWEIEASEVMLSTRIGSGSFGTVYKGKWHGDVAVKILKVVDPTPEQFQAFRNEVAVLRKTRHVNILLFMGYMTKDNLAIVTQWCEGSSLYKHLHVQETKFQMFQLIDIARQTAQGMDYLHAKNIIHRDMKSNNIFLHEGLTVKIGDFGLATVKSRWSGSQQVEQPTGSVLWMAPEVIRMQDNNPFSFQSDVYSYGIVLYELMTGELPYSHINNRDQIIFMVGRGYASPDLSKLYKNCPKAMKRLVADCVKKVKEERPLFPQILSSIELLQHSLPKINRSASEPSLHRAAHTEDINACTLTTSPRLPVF
Receptor tyrosine-protein kinase erbB-2, sequence (P04626 whole entry, the tested form may be a part): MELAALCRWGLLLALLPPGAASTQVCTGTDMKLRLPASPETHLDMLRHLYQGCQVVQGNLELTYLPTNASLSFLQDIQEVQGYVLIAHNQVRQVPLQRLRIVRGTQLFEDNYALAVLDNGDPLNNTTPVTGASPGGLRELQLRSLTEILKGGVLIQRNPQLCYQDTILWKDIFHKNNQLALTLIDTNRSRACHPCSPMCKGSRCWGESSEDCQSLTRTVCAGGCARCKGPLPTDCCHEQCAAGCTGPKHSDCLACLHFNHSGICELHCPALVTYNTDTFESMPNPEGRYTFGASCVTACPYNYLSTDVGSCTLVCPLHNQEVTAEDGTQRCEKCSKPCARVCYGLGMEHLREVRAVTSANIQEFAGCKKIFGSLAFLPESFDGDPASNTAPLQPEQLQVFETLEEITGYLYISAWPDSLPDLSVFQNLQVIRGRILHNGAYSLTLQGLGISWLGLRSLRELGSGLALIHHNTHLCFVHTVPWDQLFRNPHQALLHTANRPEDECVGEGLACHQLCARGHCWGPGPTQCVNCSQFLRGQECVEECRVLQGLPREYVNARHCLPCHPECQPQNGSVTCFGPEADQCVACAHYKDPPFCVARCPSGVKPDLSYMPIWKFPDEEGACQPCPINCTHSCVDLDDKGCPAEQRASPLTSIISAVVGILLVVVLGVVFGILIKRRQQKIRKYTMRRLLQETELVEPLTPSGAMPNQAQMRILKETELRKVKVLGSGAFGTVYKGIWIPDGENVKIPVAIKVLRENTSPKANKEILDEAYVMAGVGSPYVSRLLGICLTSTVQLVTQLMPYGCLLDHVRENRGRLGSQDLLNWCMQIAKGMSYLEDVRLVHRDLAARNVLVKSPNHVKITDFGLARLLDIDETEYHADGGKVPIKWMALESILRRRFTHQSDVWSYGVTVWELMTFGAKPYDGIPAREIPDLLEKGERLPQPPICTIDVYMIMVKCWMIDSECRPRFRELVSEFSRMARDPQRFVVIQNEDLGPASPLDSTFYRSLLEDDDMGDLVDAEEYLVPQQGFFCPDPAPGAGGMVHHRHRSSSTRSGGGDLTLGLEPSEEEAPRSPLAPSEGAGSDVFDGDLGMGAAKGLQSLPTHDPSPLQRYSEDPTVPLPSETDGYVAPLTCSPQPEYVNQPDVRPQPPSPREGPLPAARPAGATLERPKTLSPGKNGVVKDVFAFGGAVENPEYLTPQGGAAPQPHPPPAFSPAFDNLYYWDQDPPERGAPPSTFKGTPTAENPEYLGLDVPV
Epidermal growth factor receptor, sequence (P00533 whole entry): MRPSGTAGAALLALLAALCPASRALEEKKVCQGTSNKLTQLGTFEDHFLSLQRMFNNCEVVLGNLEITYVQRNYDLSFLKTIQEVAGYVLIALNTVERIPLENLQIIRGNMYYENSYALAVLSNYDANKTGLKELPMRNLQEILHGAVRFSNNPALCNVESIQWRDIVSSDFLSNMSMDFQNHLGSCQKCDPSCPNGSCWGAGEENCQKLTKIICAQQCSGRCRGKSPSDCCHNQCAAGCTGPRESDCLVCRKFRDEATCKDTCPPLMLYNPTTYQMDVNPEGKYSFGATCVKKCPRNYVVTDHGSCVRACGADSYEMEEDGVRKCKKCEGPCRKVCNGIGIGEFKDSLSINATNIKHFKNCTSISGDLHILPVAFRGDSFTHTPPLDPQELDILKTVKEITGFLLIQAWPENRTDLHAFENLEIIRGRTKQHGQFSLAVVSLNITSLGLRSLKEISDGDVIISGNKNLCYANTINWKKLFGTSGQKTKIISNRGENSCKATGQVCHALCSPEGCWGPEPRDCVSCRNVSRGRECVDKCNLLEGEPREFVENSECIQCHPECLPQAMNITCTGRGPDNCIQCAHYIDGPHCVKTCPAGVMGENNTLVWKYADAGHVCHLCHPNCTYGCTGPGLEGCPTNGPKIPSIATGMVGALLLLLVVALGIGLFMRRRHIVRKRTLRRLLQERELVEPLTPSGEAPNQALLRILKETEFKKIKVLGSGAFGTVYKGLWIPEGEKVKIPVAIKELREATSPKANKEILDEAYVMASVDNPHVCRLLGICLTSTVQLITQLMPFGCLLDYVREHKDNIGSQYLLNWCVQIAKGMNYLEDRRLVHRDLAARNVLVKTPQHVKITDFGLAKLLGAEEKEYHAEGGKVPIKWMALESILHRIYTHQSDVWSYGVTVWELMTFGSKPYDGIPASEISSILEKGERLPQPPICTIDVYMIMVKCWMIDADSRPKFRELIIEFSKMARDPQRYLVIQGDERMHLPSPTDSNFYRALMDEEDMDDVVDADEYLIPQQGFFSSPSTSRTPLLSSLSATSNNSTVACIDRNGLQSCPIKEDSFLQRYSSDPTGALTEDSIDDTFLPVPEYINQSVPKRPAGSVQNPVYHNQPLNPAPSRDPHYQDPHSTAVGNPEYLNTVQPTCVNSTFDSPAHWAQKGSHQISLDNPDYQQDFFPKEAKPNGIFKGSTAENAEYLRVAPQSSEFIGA
Retinoblastoma-associated protein (Homo sapiens), sequence (P06400 whole entry): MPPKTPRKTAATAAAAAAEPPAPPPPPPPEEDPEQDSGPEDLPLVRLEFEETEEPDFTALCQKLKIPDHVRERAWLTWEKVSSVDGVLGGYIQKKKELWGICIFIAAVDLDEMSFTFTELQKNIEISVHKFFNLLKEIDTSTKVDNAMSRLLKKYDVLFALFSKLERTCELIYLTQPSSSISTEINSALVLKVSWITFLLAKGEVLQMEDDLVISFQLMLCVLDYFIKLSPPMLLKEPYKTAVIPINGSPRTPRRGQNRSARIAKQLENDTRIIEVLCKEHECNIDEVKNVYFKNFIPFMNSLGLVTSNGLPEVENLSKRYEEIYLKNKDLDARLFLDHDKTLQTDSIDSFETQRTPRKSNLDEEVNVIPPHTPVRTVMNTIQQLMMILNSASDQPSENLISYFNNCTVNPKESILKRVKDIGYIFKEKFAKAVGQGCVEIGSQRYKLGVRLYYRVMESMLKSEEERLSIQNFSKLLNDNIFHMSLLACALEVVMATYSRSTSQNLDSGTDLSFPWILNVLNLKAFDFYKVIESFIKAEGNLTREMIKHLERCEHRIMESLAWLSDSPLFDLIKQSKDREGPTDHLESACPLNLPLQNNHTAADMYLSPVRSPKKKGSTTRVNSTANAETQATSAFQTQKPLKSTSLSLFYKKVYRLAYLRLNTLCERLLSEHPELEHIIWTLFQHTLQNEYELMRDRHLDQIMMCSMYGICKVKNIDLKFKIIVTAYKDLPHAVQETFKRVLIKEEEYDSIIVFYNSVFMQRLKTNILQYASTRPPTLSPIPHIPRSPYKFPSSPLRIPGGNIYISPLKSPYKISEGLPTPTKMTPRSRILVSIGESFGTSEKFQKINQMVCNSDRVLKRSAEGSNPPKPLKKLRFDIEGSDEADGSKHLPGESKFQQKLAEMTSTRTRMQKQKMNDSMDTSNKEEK
Mitogen-activated protein kinase kinase kinase 8, sequence (P41279 whole entry): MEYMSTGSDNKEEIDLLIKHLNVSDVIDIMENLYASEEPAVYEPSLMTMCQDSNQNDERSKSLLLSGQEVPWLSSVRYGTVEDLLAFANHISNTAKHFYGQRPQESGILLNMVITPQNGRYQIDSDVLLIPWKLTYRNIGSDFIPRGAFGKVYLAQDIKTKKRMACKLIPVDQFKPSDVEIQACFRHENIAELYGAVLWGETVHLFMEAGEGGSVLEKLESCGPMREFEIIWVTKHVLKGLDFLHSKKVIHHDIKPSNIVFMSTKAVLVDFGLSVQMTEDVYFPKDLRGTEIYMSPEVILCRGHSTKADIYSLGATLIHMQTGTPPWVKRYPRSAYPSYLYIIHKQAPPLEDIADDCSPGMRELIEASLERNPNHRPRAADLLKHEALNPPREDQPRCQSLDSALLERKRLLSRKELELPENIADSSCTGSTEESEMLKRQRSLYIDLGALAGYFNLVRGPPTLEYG

For `COc1cc2ncc(C#N)c(Nc3ccc(OCc4ccccn4)c(Cl)c3)c2cc1NC(=O)/C=C/CN(C)C`, the TGI (SK-OV-3) was “Dose-Dependent Effect”, the Activity (BT-474 [1]) was 63% and the IC50 (SW-620) was 690 nM. For the same compound, the Activity (BT-474 [2]) was “Active”, the inhibition in vivo at 40 mg/kg [3] was 43% and the Activity (BT-474 [4]) was 66%. For the same compound, the IC50 [5] was greater than 35000 nM, the IC50 at 2 days [6] was 700 nM and the IC50 [7] was greater than 18000 nM. The Activity (BT-474 [8]) was 13%, the IC50 [9] was 1400 nM and the Activity [10] was “Non-Toxic”. The Activity (BT-474 [11]) was 16%, the inhibition in vivo at 20 mg/kg (A-431) was 44% and the Activity (BT-474 [12]) was 14%. The inhibition in vivo at 20 mg/kg (NIH3T3 [13]) was 53%, the IC50 (MDA-MB-361) was 190 nM and the Activity (BT-474 [14]) was 7%. The inhibition [15] was greater than 99%, the Activity (BT-474 [16]) was 11% and the inhibition [17] was “Active”. It also gave an Activity (BT-474 [18]) of 10%, an inhibition [19] of 97% and a Ratio IC50 (Homo sapiens [20]) of 14. For the same compound, the Activity (BT-474 [21]) was 9%, the Ratio IC50 (Homo sapiens [22]) was 24 and the IC50 (BT-474 [23]) was 2 nM. The Activity [24] was “Non-Toxic”, the IC50 (MDA-MB-435) was 960 nM and the inhibition in vivo at 10 mg/kg (NIH3T3 [25]) was 34%. The IC50 [26] was greater than 18000 nM, the Activity (BT-474 [27]) was 10% and the IC50 (NIH3T3 [28]) was 3 nM.
